Results from patent US20190070396A1 (priority 2017, published 2019).
Read-outs that look alike come from different tables or passages of the source.

Legend:
[1] = Beagle, dog, in vivo
[2] = in vivo; details: dog
[3] = dog, in vivo, 0.8 mg

| Structure (SMILES) | buccal increase over basal level as share of the increase demonstrated by benchmark intramuscular injection [1] | AUC ([2]; 0.8 mg) [ng·h/mL] | Cmax ([2]; 0.8 mg) [ng/mL] | AUC ([2]; 8 mg) [ng·h/mL] | Cmax ([2]; 8 mg) [ng/mL] | Tmax ([2]; 8 mg) [min] | AUC ([2]; im, 0.4 mg) [ng·h/mL] | Cmax ([2]; im, 0.4 mg) [ng/mL] | Tmax ([2]; im, 0.4 mg) [min] | Tmax [3] [min] |
| --- | --- | --- | --- | --- | --- | --- | --- | --- | --- | --- |
| CNC[C@H](O)c1ccc(O)c(O)c1 [epinephrine] | approximately 20% |  |  |  |  |  |  |  |  |  |
| C=CCN1CC[C@]23c4c5ccc(O)c4O[C@H]2C(=O)CC[C@@]3(O)[C@H]1C5 [naloxone] |  | 8.33 | 25 | 58.3 | 52 | 18 | 10 | 9 | 22 | 15 |
